From patent US8119643B2, “Benzoimidazolyl-pyrazine compounds for inflammation and immune-related uses” (Synta Pharmaceuticals Corp., priority 2006, dated 2012)

tested on: IL-2 production; test: Inhibition of IL-2 production in PHA-activated Jurkat cells (ELISA); assay type: cell-based; settings: Homo sapiens, PHA 2.5 μg/mL, 20 hours, IL-2 ELISA
Method: Jurkat cells were placed in a 96 well plate (0.5 million cells per well in 1% FBS medium) then a test compound of this invention was added at different concentrations. After 10 minutes, the cells were activated with PHA (final concentration 2.5 μg/mL) and incubated for 20 hours at 37° C. under CO2. The final volume was 200 μL. Following incubation, the cells were centrifuged and the supernatants were collected and stored at −70° C. prior to assaying for IL-2 production. A commercial ELISA kit (IL-2 Eli-pair, Diaclone Research, Besancon, France) was used to detect production of IL-2, from which dose response curves were obtained. The IC50 value was calculated as the concentration at which 50% of maximum IL-2 production after stimulation was inhibited versus a non-stimulation control.

Row | SMILES | IC50
1 | COc1ccc2c(c1)nc(C(F)(F)F)n2-c1cnc(NC(=O)c2ccncc2F)cn1 [Compound 3, 3-Fluoro-N-[5-(5-methoxy-2-trifluoromethyl-benzoimidazol-1-yl)-pyrazin-2-yl]-isonicotinamide] | 79 nM
2 | COc1ccc2c(c1)nc(C(F)(F)F)n2-c1cnc(NC(=O)c2ccccc2F)cn1 [Compound 5, 2-Fluoro-N-[5-(5-methoxy-2-trifluoromethyl-benzoimidazol-1-yl)-pyrazin-2-yl]-benzamide] | 20 nM
3 | COc1ccc2c(c1)nc(C(F)(F)F)n2-c1cnc(NC(=O)c2ccc(F)cc2F)cn1 [Compound 7, 2,4-Difluoro-N-[5-(5-methoxy-2-trifluoromethyl-benzoimidazol-1-yl)-pyrazin-2-yl]-benzamide] | 33 nM
4 | COc1ccc2c(c1)nc(C(F)(F)F)n2-c1cnc(NC(=O)c2ccc(Cl)cc2F)cn1 [Compound 9, 4-Chloro-2-fluoro-N-[5-(5-methoxy-2-trifluoromethyl-benzoimidazol-1-yl)-pyrazin-2-yl]-benzamide] | 55 nM
5 | COC(=O)c1ccc2c(c1)nc(C(F)(F)F)n2-c1cnc(NC(=O)c2c(F)cccc2F)cn1 [Compound 25, 1-[5-(2,6-Difluoro-benzoylamino)-pyrazin-2-yl]-2-trifluoromethyl-1H-benzoimidazole-5-carboxylic acid methyl ester] | 29 nM
6 | COC(=O)c1ccc2c(c1)nc(C(F)(F)F)n2-c1cnc(NC(=O)c2ccncc2C)cn1 [Compound 28, 1-{5-[(3-Methyl-pyridine-4-carbonyl)-amino]-pyrazin-2-yl}-2-trifluoromethyl-1H-benzoimidazole-5-carboxylic acid methyl ester] | 112 nM
7 | COc1ccc2c(c1)nc(C(F)(F)F)n2-c1cnc(NCc2c(F)cccc2F)cn1 [Compound 37, (2,6-Difluoro-benzyl)-[5-(5-methoxy-2-trifluoromethyl-benzoimidazol-1-yl)-pyrazin-2-yl]-amine] | 103 nM
8 | COc1ccc2c(c1)nc(C(F)(F)F)n2-c1cnc(NCc2ccccc2F)cn1 [Compound 41, (2-Fluoro-benzyl)-[5-(5-methoxy-2-trifluoromethyl-benzoimidazol-1-yl)-pyrazin-2-yl]-amine] | 396 nM
9 | COc1ccc2c(c1)nc(C(F)(F)F)n2-c1cnc(NCc2ccccc2C)cn1 [Compound 46, [5-(5-Methoxy-2-trifluoromethyl-benzoimidazol-1-yl)-pyrazin-2-yl]-(2-methyl-benzyl)-amine] | > 1000 nM
10 | COc1ccc2c(c1)nc(C(F)(F)F)n2-c1cnc(NCC2CCCCC2)cn1 [Compound 73, Cyclohexylmethyl-[5-(5-methoxy-2-trifluoromethyl-benzoimidazol-1-yl)-pyrazin-2-yl]-amine] | > 1000 nM
11 | COc1ccc2c(c1)nc(C(F)(F)F)n2-c1cnc(NC(=O)c2ccccc2Br)cn1 [Compound 85, 2-Bromo-N-[5-(5-methoxy-2-trifluoromethyl-benzoimidazol-1-yl)-pyrazin-2-yl]-benzamide] | 37 nM
12 | COc1ccc2c(c1)nc(C(F)(F)F)n2-c1cnc(NC(=O)c2ccc(F)cc2)cn1 [Compound 86, 4-Fluoro-N-[5-(5-methoxy-2-trifluoromethyl-benzoimidazol-1-yl)-pyrazin-2-yl]-benzamide] | 150 nM
13 | COc1ccc2c(c1)nc(C(F)(F)F)n2-c1cnc(NCc2ccccc2Cl)cn1 [Compound 87, (2-Chloro-benzyl)-[5-(5-methoxy-2-trifluoromethyl-benzoimidazol-1-yl)-pyrazin-2-yl]-amine] | > 1000 nM
14 | COc1ccc2c(c1)nc(C(F)(F)F)n2-c1cnc(NC(=O)c2cccc(F)c2)cn1 [Compound 88, 3-Fluoro-N-[5-(5-methoxy-2-trifluoromethyl-benzoimidazol-1-yl)-pyrazin-2-yl]-benzamide] | 101 nM
15 | COc1ccc2c(c1)nc(C(F)(F)F)n2-c1cnc(NCc2ccc(F)cc2)cn1 [Compound 89, (4-Fluoro-benzyl)-[5-(5-methoxy-2-trifluoromethyl-benzoimidazol-1-yl)-pyrazin-2-yl]-amine] | > 1000 nM
16 | COc1ccc(CNc2cnc(-n3c(C(F)(F)F)nc4cc(OC)ccc43)cn2)cc1 [Compound 90, (4-Methoxy-benzyl)-[5-(5-methoxy-2-trifluoromethyl-benzoimidazol-1-yl)-pyrazin-2-yl]-amine] | > 1000 nM
17 | COc1ccc2c(c1)nc(C(F)(F)F)n2-c1cnc(NC(=O)c2ccc(Cl)cc2)cn1 [Compound 91, 4-Chloro-N-[5-(5-methoxy-2-trifluoromethyl-benzoimidazol-1-yl)-pyrazin-2-yl]-benzamide] | 384 nM
18 | COc1ccc2c(c1)nc(C(F)(F)F)n2-c1cnc(NC(=O)c2cccc(C)c2C)cn1 [Compound 92, N-[5-(5-Methoxy-2-trifluoromethyl-benzoimidazol-1-yl)-pyrazin-2-yl]-2,3-dimethyl-benzamide] | 17 nM

Row | SMILES | IC50
19 | COc1ccc2c(c1)nc(C(F)(F)F)n2-c1cnc(NC(=O)c2ccc(C#N)cc2)cn1 [Compound 93, 4-Cyano-N-[5-(5-methoxy-2-trifluoromethyl-benzoimidazol-1-yl)-pyrazin-2-yl]-benzamide] | 181 nM
20 | COc1ccc2c(c1)nc(C(F)(F)F)n2-c1cnc(NC(=O)c2ccc(C)cc2C)cn1 [Compound 94, N-[5-(5-Methoxy-2-trifluoromethyl-benzoimidazol-1-yl)-pyrazin-2-yl]-2,4-dimethyl-benzamide] | 78 nM
21 | COc1ccc2c(c1)nc(C(F)(F)F)n2-c1cnc(NC(=O)c2cccc(SC)c2)cn1 [Compound 95, N-[5-(5-Methoxy-2-trifluoromethyl-benzoimidazol-1-yl)-pyrazin-2-yl]-3-methylsulfanyl-benzamide] | 489 nM
22 | COc1ccc2c(c1)nc(C(F)(F)F)n2-c1cnc(NC(=O)c2cccc(Cl)c2)cn1 [Compound 96, 3-Chloro-N-[5-(5-methoxy-2-trifluoromethyl-benzoimidazol-1-yl)-pyrazin-2-yl]-benzamide] | 91 nM
23 | COc1ccc2c(c1)nc(C(F)(F)F)n2-c1cnc(NC(=O)c2ccc([N+](=O)[O-])cc2)cn1 [Compound 97, N-[5-(5-Methoxy-2-trifluoromethyl-benzoimidazol-1-yl)-pyrazin-2-yl]-4-nitro-benzamide] | 307 nM
24 | COc1ccc2c(c1)nc(C(F)(F)F)n2-c1cnc(NC(=O)c2cccc([N+](=O)[O-])c2)cn1 [Compound 98, N-[5-(5-Methoxy-2-trifluoromethyl-benzoimidazol-1-yl)-pyrazin-2-yl]-3-nitro-benzamide] | 104 nM
25 | COc1ccc2c(c1)nc(C(F)(F)F)n2-c1cnc(NC(=O)c2ccccc2Cl)cn1 [Compound 99, 2-Chloro-N-[5-(5-methoxy-2-trifluoromethyl-benzoimidazol-1-yl)-pyrazin-2-yl]-benzamide] | 52 nM
26 | COc1ccc2c(c1)nc(C(F)(F)F)n2-c1cnc(NCc2c(F)cccc2Cl)cn1 [Compound 100, (2-Chloro-6-fluoro-benzyl)-[5-(5-methoxy-2-trifluoromethyl-benzoimidazol-1-yl)-pyrazin-2-yl]-amine] | 132 nM
27 | COc1ccc2c(c1)nc(C(F)(F)F)n2-c1cnc(NC(=O)c2cccc(C#N)c2)cn1 [Compound 101, 3-Cyano-N-[5-(5-methoxy-2-trifluoromethyl-benzoimidazol-1-yl)-pyrazin-2-yl]-benzamide] | 96 nM
28 | COc1ccc2c(c1)nc(C(F)(F)F)n2-c1cnc(NCc2ccccc2OC)cn1 [Compound 102, (2-Methoxy-benzyl)-[5-(5-methoxy-2-trifluoromethyl-benzoimidazol-1-yl)-pyrazin-2-yl]-amine] | > 1000 nM
29 | COc1cccc(CNc2cnc(-n3c(C(F)(F)F)nc4cc(OC)ccc43)cn2)c1 [Compound 103, (3-Methoxy-benzyl)-[5-(5-methoxy-2-trifluoromethyl-benzoimidazol-1-yl)-pyrazin-2-yl]-amine] | > 1000 nM
30 | COc1cccc(C(=O)Nc2cnc(-n3c(C(F)(F)F)nc4cc(OC)ccc43)cn2)c1 [Compound 104, 3-Methoxy-N-[5-(5-methoxy-2-trifluoromethyl-benzoimidazol-1-yl)-pyrazin-2-yl]-benzamide] | 929 nM
31 | COc1ccc2c(c1)nc(C(F)(F)F)n2-c1cnc(NCc2ccncc2)cn1 [Compound 105, [5-(5-Methoxy-2-trifluoromethyl-benzoimidazol-1-yl)-pyrazin-2-yl]-pyridin-4-ylmethyl-amine] | > 1000 nM
32 | CCc1ccc(C(=O)Nc2cnc(-n3c(C(F)(F)F)nc4cc(OC)ccc43)cn2)cc1 [Compound 106, 4-Ethyl-N-[5-(5-methoxy-2-trifluoromethyl-benzoimidazol-1-yl)-pyrazin-2-yl]-benzamide] | 2 nM
33 | COc1ccc2c(c1)nc(C(F)(F)F)n2-c1cnc(NC(=O)c2ccc(Br)cc2)cn1 [Compound 107, 4-Bromo-N-[5-(5-methoxy-2-trifluoromethyl-benzoimidazol-1-yl)-pyrazin-2-yl]-benzamide] | 18 nM
34 | COc1ccc2c(c1)nc(C(F)(F)F)n2-c1cnc(NC(=O)c2cccc(Br)c2)cn1 [Compound 108, 3-Bromo-N-[5-(5-methoxy-2-trifluoromethyl-benzoimidazol-1-yl)-pyrazin-2-yl]-benzamide] | 57 nM
35 | CCCc1ccc(C(=O)Nc2cnc(-n3c(C(F)(F)F)nc4cc(OC)ccc43)cn2)cc1 [Compound 109, N-[5-(5-Methoxy-2-trifluoromethyl-benzoimidazol-1-yl)-pyrazin-2-yl]-4-propyl-benzamide] | 279 nM
36 | COc1ccc2c(c1)nc(C(F)(F)F)n2-c1cnc(NC(=O)c2ccc(Cl)cc2Cl)cn1 [Compound 110, 2,4-Dichloro-N-[5-(5-methoxy-2-trifluoromethyl-benzoimidazol-1-yl)-pyrazin-2-yl]-benzamide] | 19 nM
